In ChEMBL document CHEMBL3507680, “University of Dundee, Gates Library screen for HepG2 cell viability”:

Assay: Human HepG2 cell viability assay in 384 well format
Assay type: toxicity, cell-based
Design: dose 125 nL, time 70.5 hour; concentration not given beside the values
Conditions: HepG2 cells, read-out: Inhibition

SMILES | cytotoxicity at 70.5 h [%]
O=C1CC(NCc2ccc(OC(F)F)cc2)CN1Cc1cccc(F)c1 (stereo not given) | -4.49
COCCOCC(=O)N1CCC(c2ccccc2F)C1 (stereo not given) | -9.1
Cc1nnc(SCCCNC(=O)Nc2ccc3c(c2)OCO3)s1 | 11.4
CNC(=O)C1(c2cnccn2)CCCN1C(=O)c1ncccc1C (stereo not given) | -5.43
CCC(NC(=O)c1cccc2cc[nH]c12)C(=O)N1CCOCC1 (stereo not given) | -11.2
CN(C)C(=O)CCNC(=O)c1cnc(-c2ccccc2)nc1 | -5.51
COc1cccc2c1OCC(NCCCOc1cccnc1)C2 (stereo not given) | -5.15
COc1cccc2sc(N3CCN(C(=O)c4cc(C)on4)CC3)nc12 | -2.51
C=C(C)COc1cccc(CN(C)C(C)c2ccncn2)c1 (stereo not given) | -4.71
CC(=O)N1CC[C@H]2OCC[C@@H](C(=O)Nc3cccnc3C)[C@H]2C1 | -3.55
Cc1nc(CN2CCCC(c3cc(C(N)=O)[nH]n3)C2)oc1C (stereo not given) | -1.85
O=C(CN1CCCC1c1noc(C2CC2)n1)NCCc1ccsc1 (stereo not given) | 4.35
CC1=Nc2c(c(=O)[nH]n2C(C)C)C(c2ccc(F)c(F)c2)S1 (stereo not given) | -4.57
c1ccc2c(Cc3nnc([C@H]4CCN(C5CCC5)C4)o3)c[nH]c2c1 | -6.08
CC(=O)N1CCCCC1c1ncnn1-c1ccc2nc(C)sc2c1 (stereo not given) | -4.05
COc1cc(CCC(=O)N2CCC(c3cc4ncccc4[nH]3)CC2)on1 | 22
O=C1NC2(CCN(Cc3nccs3)CC2)CC1c1ccncc1 (stereo not given) | -0.916
Cc1cc(OCC(=O)N2CCCC(c3nccs3)C2)no1 (stereo not given) | -2.96
CCNC(=O)CN(CC)C(=O)c1cc(-c2cccc(Cl)c2)no1 | -0.184
CN(CCc1cn[nH]c1)Cc1nc(Cc2cccc(C(F)(F)F)c2)no1 | 3.03
Cn1nc2c(cc1=O)CN(CCc1nc3ccccc3c(=O)[nH]1)CC2 | 1.45
Cc1ccc(C(C(=O)NCCN2CCCCCC2)N(C)C)cc1 (stereo not given) | 5.23
COc1cccc(COCC(=O)NC(C(N)=O)c2ccccc2F)c1 (stereo not given) | 12

SMILES | cytotoxicity at 70.5 h [%]
Cc1cn2nc(N3CCCC3Cn3nc(C)nc3C)sc2n1 (stereo not given) | -5.44
Cc1cccc(CS(=O)(=O)NCc2nn(C)c3c2COCC3)c1 | -7.96
N#Cc1ccccc1CN1CCC(c2nccn2CC2CCC2)CC1 | -1.95
CN(CCN1CCOC1=O)CC(=O)Nc1cc(F)cc(F)c1 | -19.7
O=C1CC(c2ccncc2)C2(CCN(Cc3cccnc3)CC2)N1 (stereo not given) | -6.24
CCOc1ccc(C#N)cc1NC(=O)N1CCCC(NC(=O)CC)C1 (stereo not given) | -7.12
CN(C(=O)c1cccc(C#N)c1)c1nnc(C2CCOC2)s1 (stereo not given) | -7.42
Cc1nc(COCc2cnc3n2CCN(C2CCC2)C3C)cs1 (stereo not given) | -12.4
CC(=O)N1CCN(C(=O)C2CCN(c3cccnn3)C2)CC1 (stereo not given) | -0.877
CC1CCCN(C(=O)CCNS(=O)(=O)c2cccnc2)C1 (stereo not given) | 1.82
COc1ccccc1C(=O)N1CCOC2(CCCN(C(C)=O)C2)C1 (stereo not given) | -12.3
COC(=O)c1cc(CN2CCN(c3nc(C)cnc3C)CC2)ccc1O | -1.95
O=C(c1ccccn1)N1CCC2(CC1)COC(COCC1CCCC1)C2 (stereo not given) | -13.8
CCc1cc(NCCCOC2CCN(C)CC2)ncn1 | -15.3
O=C(c1ccc(Cl)s1)N1CC(c2nc(-c3ccc[nH]c3=O)no2)C1 | -8.84
CCC(C)(NCc1nnc(C(C)(C)C)o1)c1nccs1 (stereo not given) | -0.157
CN(C)C(=O)c1cn[nH]c1C1CCCN1Cc1cncn1C (stereo not given) | -0.0963
CSC(C)(C)CNC(=O)NCCC1CCN(C)CC1 | -3.38
Cc1ccc2c(ccn2CCC(=O)NC[C@@H]2CCCN3CCCC[C@H]23)c1 | 1.22
CCNC(=O)c1cccc(CNC(=O)c2cnc(C(C)(C)C)s2)c1 | 2.86
Cc1cc2[nH]c(CN3CCOC(c4ccc(F)cc4)C3)cc(=O)n2n1 (stereo not given) | -3.51
COc1nc(N2CCNCC2)ncc1Br | -9.1
